“And” between values parts separate entries of the source, which are not always exact repeats. Equal entries are not always repeated. Where two headings read alike, the source gives them in different places.
Legend:
[1] = assay type: in vivo, human
[2] = Hepatic impairment study, single-dose gilteritinib pharmacokinetics; assay type: in vivo, human; details: for AUC480, GLSM, Unbound / AUCinf, GLSM, Unbound / Cmax, GLSM, Unbound: single 10 mg dose, fasted, N = 8
[3] = CYP3A4 drug-drug interaction study in healthy subjects; assay type: in vivo, human; details: for AUCinf, GLSM ratio / AUClast, GLSM ratio / Cmax, GLSM ratio: 100 indicates no change
[4] = Effect of food study in healthy subjects; assay type: in vivo, human; details: single 40 mg dose
Population PK analysis = assay type: in vivo, human
[5] = assay type: in vivo, human; details: R/R AML; achievable at QD doses of 80 mg or greater
[6] = cited from earlier work
FLT3 [7] = details: doses of ≥ 80 mg/day; cited from earlier work
FLT3 [8] = details: cited from earlier work
c-Kit = details: preclinical evaluations; cited from earlier work
[9] = test system: FLT3 receptors expressing the F691L gatekeeper mutation; details: cited from earlier work
MV4-11 AML cells = details: mice xenografted with MV4-11 AML cells; cited from earlier work
[10] = for AUC / Cmax / Tmax / half-life: human, plasma, oral; for AUC / Cmax / Tmax: single dose (Day-2)
[11] = metabolite profiling after 14C-gilteritinib
[12] = single oral dose of 14C-gilteritinib
[13] = fluconazole + gilteritinib/gilteritinib alone
[14] = itraconazole + gilteritinib/gilteritinib alone
[15] = rifampicin + gilteritinib/gilteritinib alone
[16] = multiple dosing QD (Day 15), 20 mg, n = 3
[17] = multiple dosing QD (Day 15), 40 mg, n = 2
[18] = multiple dosing QD (Day 15), 40 mg, n = 12
[19] = multiple dosing QD (Day 15), 80 mg, n = 3
[20] = multiple dosing QD (Day 15), 80 mg, n = 20
[21] = multiple dosing QD (Day 15), 120 mg, n = 3
[22] = multiple dosing QD (Day 15), 120 mg, n = 61
[23] = multiple dosing QD (Day 15), 200 mg, n = 2
[24] = multiple dosing QD (Day 15), 200 mg, n = 79
[25] = multiple dosing QD (Day 15), 300 mg, n = 3
[26] = multiple dosing QD (Day 15), 300 mg, n = 15

CCc1nc(C(N)=O)c(Nc2ccc(N3CCC(N4CCN(C)CC4)CC3)c(OC)c2)nc1NC1CCOCC1 [gilteritinib, Gilteritinib]
average total blood-to-plasma ratios of total 14C-radioactivity ([1]; after [14C]-gilteritinib 120 mg single dose at steady state): 0.8514–1.361 | radioactive peak in feces, accounting for [1, 11]: 11.7–23.8% | radioactive peak in urine, accounting for [1, 11]: 6.3–15.8% | total administered dose recovered in feces [1, 12]: 64.5% | total dose recovered in urine [1, 12]: 16.4% | total radioactive dose recovered [1, 12]: 80.9% | AUC480, GMR vs normal hepatic function, Total ([2]; mild hepatic impairment): 78.13% | AUC480, GMR vs normal hepatic function, Unbound ([2]; mild hepatic impairment): 87.59% | AUCinf, GMR vs normal hepatic function, Total ([2]; mild hepatic impairment): 78.88% | AUCinf, GMR vs normal hepatic function, Unbound ([2]; mild hepatic impairment): 88.42% | Cmax, GMR vs normal hepatic function, Total ([2]; mild hepatic impairment): 106.59% | Cmax, GMR vs normal hepatic function, Unbound ([2]; mild hepatic impairment): 119.49% | AUC480, GMR vs normal hepatic function, Total ([2]; moderate hepatic impairment): 60.55% | AUC480, GMR vs normal hepatic function, Unbound ([2]; moderate hepatic impairment): 87.21% | AUCinf, GMR vs normal hepatic function, Total ([2]; moderate hepatic impairment): 61.43% | AUCinf, GMR vs normal hepatic function, Unbound ([2]; moderate hepatic impairment): 88.48% | Cmax, GMR vs normal hepatic function, Total ([2]; moderate hepatic impairment): 81.73% | Cmax, GMR vs normal hepatic function, Unbound ([2]; moderate hepatic impairment): 117.72% | AUC480, GLSM, Unbound ([2]; mild hepatic impairment): 25.95 ng·h/mL | AUCinf, GLSM, Unbound ([2]; mild hepatic impairment): 27.53 ng·h/mL | Cmax, GLSM, Unbound ([2]; mild hepatic impairment): 0.5171 ng/mL | AUC480, GLSM, Unbound ([2]; moderate hepatic impairment): 25.84 ng·h/mL | AUCinf, GLSM, Unbound ([2]; moderate hepatic impairment): 27.54 ng·h/mL | Cmax, GLSM, Unbound ([2]; moderate hepatic impairment): 0.5095 ng/mL | AUC480, GLSM, Unbound ([2]; normal hepatic function): 29.62 ng·h/mL | AUCinf, GLSM, Unbound ([2]; normal hepatic function): 31.13 ng·h/mL | Cmax, GLSM, Unbound ([2]; normal hepatic function): 0.4328 ng/mL | increase in systemic exposure of gilteritinib ([3]; coadministration of itraconazole (strong CYP3A4 inhibitor)): ~ 2.2 fold and 2.2 fold | increase in gilteritinib systemic exposure ([3]; coadministration with fluconazole): ~ 1.43 fold | decrease in gilteritinib systemic exposure ([3]; concomitant administration of rifampicin): ~ 70% | AUCinf, GLSM ratio [3, 13]: 143.5% | AUClast, GLSM ratio [3, 13]: 144.0% | Cmax, GLSM ratio [3, 13]: 115.7% | AUCinf, GLSM ratio [3, 14]: 221.4% | AUClast, GLSM ratio [3, 14]: 213.5% | Cmax, GLSM ratio [3, 14]: 119.8% | AUCinf, GLSM ratio [3, 15]: 28.5% | AUClast, GLSM ratio [3, 15]: 29.2% | Cmax, GLSM ratio [3, 15]: 73.4% | AUC72, GMR (fed/fasted) [4]: 91.0% | AUCinf, GMR (fed/fasted) [4]: 93.8% | AUClast, GMR (fed/fasted) [4]: 94.6% | Cmax, GMR (fed/fasted) [4]: 74.0% | half-life (Population PK analysis; human, plasma, oral): 113 h | volume of distribution (Population PK analysis; in vivo): large volume of distribution | steady-state Ctrough at which composite complete response occurred more commonly [5]: ≥ 100 ng/mL | maximum tolerated dose ([6]; R/R AML, QD single agent): 300 mg/day | median overall survival duration ([6]; doses of ≥ 80 mg/day): 31 weeks | overall response rate ([6]; doses of ≥ 80 mg/day): 52% | maximum FLT3 inhibition (FLT3 [7]): > 90% | inhibition of FLT3 receptors with ITD and D835 mutations (FLT3 [8]): highly specific potent inhibition | selectivity for FLT3 (FLT3 [8]; preclinical evaluations): highly selective for FLT3 | activity against c-Kit (c-Kit): weak activity | activity against FLT3 receptors expressing the F691L gatekeeper mutation [9]: weak activity | effect on tumor growth (MV4-11 AML cells): inhibited tumor growth and induced tumor regression | dose proportionality of pharmacokinetics ([10]; 20 to 450 mg QD, R/R AML): dose-proportional pharmacokinetics | time at which steady state is achieved, based on Ctrough ([10]; QD dosing, visual inspection of median Ctrough): ≤ 15 days | AUC ([10]; 20 mg, AUC24, Mean (SD), n = 5): 302 ng·h/mL | AUC ([10]; 20 mg, AUC24, Median (range), n = 5): 262 ng·h/mL | Cmax ([10]; 20 mg, Mean (SD), n = 5): 28.1 ng/mL | Cmax ([10]; 20 mg, Median (range), n = 5): 23.7 ng/mL | Tmax ([10]; 20 mg, Median (range), n = 5): 2 h | half-life ([10]; 20 mg, t½, Mean (SD), multiple dosing QD (Day 15), 20 mg, n = 3, calculated from Rac): 62.1 h | half-life ([10]; 20 mg, t½, Median (range), multiple dosing QD (Day 15), 20 mg, n = 3, calculated from Rac): 54.5 h | AUC ([10]; 40 mg, AUC24, Mean (SD), n = 3): 360 ng·h/mL | AUC ([10]; 40 mg, AUC24, Median (range), n = 3): 315 ng·h/mL | Cmax ([10]; 40 mg, Mean (SD), n = 3): 25 ng/mL | Cmax ([10]; 40 mg, Median (range), n = 3): 17 ng/mL | Tmax ([10]; 40 mg, Median (range), n = 3): 5.98 h | half-life ([10]; 40 mg, t½, Mean (SD), multiple dosing QD (Day 15), 40 mg, n = 2, calculated from Rac): 152 h | half-life ([10]; 40 mg, t½, Median (range), multiple dosing QD (Day 15), 40 mg, n = 2, calculated from Rac): 152 h | AUC ([10]; 80 mg, AUC24, Mean (SD), n = 3): 1220 ng·h/mL | AUC ([10]; 80 mg, AUC24, Median (range), n = 3): 995 ng·h/mL | Cmax ([10]; 80 mg, Mean (SD), n = 3): 75.3 ng/mL | Cmax ([10]; 80 mg, Median (range), n = 3): 71.5 ng/mL | Tmax ([10]; 80 mg, Median (range), n = 3): 4 h | half-life ([10]; 80 mg, t½, Mean (SD), multiple dosing QD (Day 15), 80 mg, n = 3, calculated from Rac): 86.1 h | half-life ([10]; 80 mg, t½, Median (range), multiple dosing QD (Day 15), 80 mg, n = 3, calculated from Rac): 91 h | AUC ([10]; 120 mg, AUC24, Mean (SD), n = 3): 2480 ng·h/mL | AUC ([10]; 120 mg, AUC24, Median (range), n = 3): 1390 ng·h/mL | Cmax ([10]; 120 mg, Mean (SD), n = 3): 137 ng/mL | Cmax ([10]; 120 mg, Median (range), n = 3): 85.7 ng/mL | Tmax ([10]; 120 mg, Median (range), n = 3): 2.1 h | half-life ([10]; 120 mg, t½, Mean (SD), multiple dosing QD (Day 15), 120 mg, n = 3, calculated from Rac): 45.9 h | half-life ([10]; 120 mg, t½, Median (range), multiple dosing QD (Day 15), 120 mg, n = 3, calculated from Rac): 44.9 h | AUC ([10]; 200 mg, AUC24, Mean (SD), n = 3): 3020 ng·h/mL | AUC ([10]; 200 mg, AUC24, Median (range), n = 3): 2540 ng·h/mL | Cmax ([10]; 200 mg, Mean (SD), n = 3): 168 ng/mL | Cmax ([10]; 200 mg, Median (range), n = 3): 149 ng/mL | Tmax ([10]; 200 mg, Median (range), n = 3): 5.2 h | half-life ([10]; 200 mg, t½, Mean (SD), multiple dosing QD (Day 15), 200 mg, n = 2, calculated from Rac): 142 h | half-life ([10]; 200 mg, t½, Median (range), multiple dosing QD (Day 15), 200 mg, n = 2, calculated from Rac): 142 h | AUC ([10]; 300 mg, AUC24, Mean (SD), n = 3): 4160 ng·h/mL | AUC ([10]; 300 mg, AUC24, Median (range), n = 3): 2450 ng·h/mL | Cmax ([10]; 300 mg, Mean (SD), n = 3): 204 ng/mL | Cmax ([10]; 300 mg, Median (range), n = 3): 137 ng/mL | Tmax ([10]; 300 mg, Median (range), n = 3): 6.1 h | half-life ([10]; 300 mg, t½, Mean (SD), multiple dosing QD (Day 15), 300 mg, n = 3, calculated from Rac): 142 h | half-life ([10]; 300 mg, t½, Median (range), multiple dosing QD (Day 15), 300 mg, n = 3, calculated from Rac): 159 h | AUC ([10]; 450 mg, AUC24, Mean (SD), n = 2): 3320 ng·h/mL | AUC ([10]; 450 mg, AUC24, Median (range), n = 2): 3320 ng·h/mL | Cmax ([10]; 450 mg, Mean (SD), n = 3): 208 ng/mL | Cmax ([10]; 450 mg, Median (range), n = 3): 216 ng/mL | Tmax ([10]; 450 mg, Median (range), n = 3): 5.8 h | half-life ([10]; estimated t1/2, across dose cohorts, multiple dosing): 45 to 159 h | accumulation based on the accumulation index ([10]; multiple dosing QD): up to ten-fold accumulation | Rac (accumulation ratio), Mean (SD) [10, 16]: 4.3 (1.069) | Rac (accumulation ratio), Median (range) [10, 16]: 3.8 (3.5–5.5) | Ctrough, Mean (SD) ([10]; multiple dosing QD (Day 15), 20 mg, n = 11): 43.5 (23.5) ng/mL | Rac (accumulation ratio), Mean (SD) [10, 17]: 9.6 (7.8) | Rac (accumulation ratio), Median (range) [10, 17]: 9.6 (4.2–15.1) | Ctrough, Mean (SD) [10, 18]: 72.9 (40.1) ng/mL | Ctrough, Median (range) [10, 18]: 66.6 (26.7–166) ng/mL | Rac (accumulation ratio), Mean (SD) [10, 19]: 5.7 (1.4) | Rac (accumulation ratio), Median (range) [10, 19]: 6.0 (4.1–6.97) | Ctrough, Mean (SD) [10, 20]: 165 (88.0) ng/mL | Ctrough, Median (range) [10, 20]: 110 (78.6–339) ng/mL | Rac (accumulation ratio), Mean (SD) [10, 21]: 3.3 (1.2) | Rac (accumulation ratio), Median (range) [10, 21]: 3.2 (2.2–4.4) | Ctrough, Mean (SD) [10, 22]: 367 (253) ng/mL | Ctrough, Median (range) [10, 22]: 292 (77.1–1173) ng/mL | Rac (accumulation ratio), Mean (SD) [10, 23]: 9.0 (3.7) | Rac (accumulation ratio), Median (range) [10, 23]: 9.0 (6.4–11.7) | Ctrough, Mean (SD) [10, 24]: 816 (557) ng/mL | Ctrough, Median (range) [10, 24]: 668 (90.5–2925) ng/mL | Rac (accumulation ratio), Mean (SD) [10, 25]: 9.1 (3.3) | Rac (accumulation ratio), Median (range) [10, 25]: 10.1 (5.4–11.7) | Ctrough, Mean (SD) [10, 26]: 1242 (723) ng/mL | Ctrough, Median (range) [10, 26]: 1085 (470–2391) ng/mL | Ctrough, Mean (SD) ([10]; multiple dosing QD (Day 15), 450 mg, n = 1): 1170 ng/mL
